# From patent publication US3947411A, “Novel 1-aryl-2-arylalkyl-3-or-4-[4'-(substituted-alkyl)piperazino-1']butanols- 2-or-butenes-1, and methods of manufacture thereof” (Warner-Lambert Company, priority 1972, dated 1976)
# Experiments:
# Aspergillus niger = experiment: Agar well inhibition zone test against fungi, Aspergillus niger (Table II); conditions: quantity per well giving inhibition zone (500, 50, 5 μg tested); Sabouraud agar, 28°, 48 hours
# Staphylococcus aureus = experiment: Agar well inhibition zone test against bacteria, Staphylococcus aureus (Table III); conditions: quantity per well giving inhibition zone (500, 50, 5 μg tested); nutrient agar, 37°, 24 hours
# Method: (§1) The efficacy of the compounds against bacteria was tested as follows:
# (§2) The test organisms, in this case Staphylococcus aureus and Escherichia coli, were inoculated on nutrient agar as described in Example 12, wells were punched, and the solutions of the compounds were transferred to fill the wells. The quantity of compound in the wells amounted again to 500 μg, 50 μg and 5 μg.
# (§3) After incubation a 37° for 24 hours the quantity of compound was determined at which an inhibition of the organism's growth, in the form of an inhibition zone around the corresponding well, occurred.
# Staph. aureus = experiment: Minimum inhibitory concentration for bacteria, tube dilution, Staph. aureus (Table V); conditions: Staphylococcus aureus, 48 h, read-out: Minimum Inhibitory Concentration, Staph. aureus
# Method: A tube dilution series of the respective compound in nutrient broth whose individual tubes contained concentrations of 1024 μg, 512 μg, 256 μg, 128 μg, 64 μg, 32 μg, 1 μg, 8 μg, 4 μg, 2 μg, 1.1 μg and 0.5 μg/ml was prepared and inoculated with a photometrically standardized suspension of the test organisms.
# Solubility in water = assay type: physicochemical; conditions: hydrochlorides or oxalates, read-out: solubilities (in water)
# Method: The following list contains examples of those compounds which are made according to the methods disclosed. (The individual compounds are identified by elementary analyses and infrared spectra, by ultra-violet or nuclear resonance spectra, if necessary.) Individual melting points and solubilities (in water) are also given as is the method by which each compound is prepared.
# The melting points and solubilities are given for the Hydrochlorides I - XVI; XVIII - XXVII; XXIX - XXXV; XXXVII - XLII; XLIV - LXII; LXIV - LXVII, and the Oxalates XVII; […]; XXXVI; LXIII.
# Candida albicans = experiment: Agar well inhibition zone test against fungi, Candida albicans (Table II); conditions: quantity per well giving inhibition zone (500, 50, 5 μg tested); Sabouraud agar, 28°, 48 hours
# Method: The efficacy of the compounds against fungi was tested as follows:
# The test organisms, in this case the blastomycete Candida albicans and the mold Aspergillus niger, were inoculated onto Sabouraud agar plates by pouring a photometrically adjusted standard suspension of organisms on the plate. After inoculation, wells with a diameter of 5.0 mm were punched in the agar, and filled with 50 ul of the compound solution mentioned before. The quantity of compound applied thus amounted to 500 μg, 50 μg and 5 μg. After incubation at 28° for 48 hours, the quantity of compound was determined at which an inhibition of the organism's growth, in form of an inhibition zone around the corresponding well, was present.
# A. niger [1] = experiment: Minimum inhibitory concentration for fungi, tube dilution, A. niger (Table IV); conditions: Aspergillus niger, 48 h, read-out: Minimum Inhibitory Concentration, A. niger
# Method: (§4) A tube dilution series of the respective compound in Sabouraud nutrient broth, whose individual tubes contained concentrations of 1024 μg, 512 μg, 256 μg, 128 μg, 64 μg, 32 μg, 16 μg, 8 μg, 4 μg, 2 μg, 1.1 μg and 0.5 μg/ml, was prepared and inoculated with a photometrically standardized suspension of the test organisms or the spores thereof.
# Escherichia coli = experiment: Agar well inhibition zone test against bacteria, Escherichia coli (Table III); conditions: quantity per well giving inhibition zone (500, 50, 5 μg tested); nutrient agar, 37°, 24 hours
# Method: as §1, §2, §3
# A. niger [2] = experiment: Minimum inhibitory concentration for fungi in presence of serum, A. niger (Table VI); assay type: cell-based; conditions: Aspergillus niger; Sabouraud nutrient broth + 10% bovine serum, 28°C, 48 hours
# C. albicans [3] = experiment: Minimum inhibitory concentration for fungi, tube dilution, C. albicans (Table IV); conditions: Candida albicans, 48 h, read-out: Minimum Inhibitory Concentration, C. albicans
# Method: as §4
# C. albicans [4] = experiment: Minimum inhibitory concentration for fungi in presence of serum, C. albicans (Table VI); assay type: cell-based; conditions: Candida albicans; Sabouraud nutrient broth + 10% bovine serum, 28°C, 48 hours
smiles,measurement,setting,value
"OC(Cc1ccccc1)(Cc1ccccc1)CN1CCN(CCN2CCCCC2)CC1 [LIX, β,β '-diphenyl-β""-[4'-(β-piperidino-ethyl)-piperazino-1']-t-butanol]","Inhibition Area at μg, Asp. niger",Aspergillus niger,5 µg
same,"Inhibition Area at μg, Staph. aureus",Staphylococcus aureus,50 µg
same,MIC,Staph. aureus,1020 mg/L
same,solubility,Solubility in water,100 mg/mL
same,"Inhibition Area at μg, Cand. albicans",Candida albicans,500 µg
same,MIC,A. niger [1],64 mg/L
same,"Inhibition Area at μg, E. coli",Escherichia coli,500 µg
same,MIC,A. niger [2],64 mg/L
"CC1CCCN(CCN2CCN(C(C)C(=Cc3ccccc3)Cc3ccccc3)CC2)C1 (stereo not drawn) [XXXIV, 1-phenyl-2-benzyl-3-{4'-[β-(3""-methylpiperidino)-ethyl]-piperazino-1'}-butene-1]","Inhibition Area at μg, Asp. niger",Aspergillus niger,50 µg
same,"Inhibition Area at μg, Staph. aureus",Staphylococcus aureus,50 µg
same,MIC,Staph. aureus,128 mg/L
same,solubility,Solubility in water,25 mg/mL
same,"Inhibition Area at μg, Cand. albicans",Candida albicans,50 µg
same,MIC,A. niger [1],32 mg/L
same,MIC,C. albicans [3],16 mg/L
same,"Inhibition Area at μg, E. coli",Escherichia coli,500 µg
"Cc1cccc(CC(O)(Cc2cccc(C)c2)C(C)N2CCN(CCN3CCCCC3)CC2)c1 (stereo not drawn) [XXI, 1-m-tolyl-2-m-methylbenzyl-3-[4'-(β-piperidino-ethyl)-piperazino-1']-butanol-2]",MIC,C. albicans [4],256 mg/L
same,"Inhibition Area at μg, Asp. niger",Aspergillus niger,5 µg
same,"Inhibition Area at μg, Staph. aureus",Staphylococcus aureus,5 µg
same,MIC,Staph. aureus,64 mg/L
same,solubility,Solubility in water,100 mg/mL
same,"Inhibition Area at μg, Cand. albicans",Candida albicans,50 µg
same,MIC,A. niger [1],4 mg/L
same,MIC,C. albicans [3],8 mg/L
same,"Inhibition Area at μg, E. coli",Escherichia coli,> 500 µg
same,MIC,A. niger [2],128 mg/L
"CC1CCN(CCN2CCN(C(C)C(=Cc3ccccc3)Cc3ccccc3)CC2)CC1 (stereo not drawn) [XXXV, 1-phenyl-2-benzyl-3-{4'-[β-(4""-methylpiperidino)-ethyl]-piperazino-1'}-butene-1]",MIC,C. albicans [4],32 mg/L
same,"Inhibition Area at μg, Asp. niger",Aspergillus niger,50 µg
same,"Inhibition Area at μg, Staph. aureus",Staphylococcus aureus,50 µg
same,MIC,Staph. aureus,256 mg/L
same,solubility,Solubility in water,10 mg/mL
same,"Inhibition Area at μg, Cand. albicans",Candida albicans,50 µg
same,MIC,A. niger [1],8 mg/L
same,MIC,C. albicans [3],8 mg/L
same,"Inhibition Area at μg, E. coli",Escherichia coli,500 µg
same,MIC,A. niger [2],128 mg/L
"CC(c1ccccc1)N1CCN(CCN2CCN(C(C)C(O)(Cc3ccccc3)Cc3ccccc3)CC2)CC1 (stereo not drawn) [XIII, 1-phenyl-2-benzyl-3-{4'-[β-(4""-α-phenethyl-piperazino-1"")-ethyl]-piperazino-1'}-butanol-2]",MIC,C. albicans [4],513 mg/L
same,"Inhibition Area at μg, Asp. niger",Aspergillus niger,500 µg
same,"Inhibition Area at μg, Staph. aureus",Staphylococcus aureus,5 µg
same,MIC,Staph. aureus,32 mg/L
same,solubility,Solubility in water,100 mg/mL
same,"Inhibition Area at μg, Cand. albicans",Candida albicans,500 µg
same,"Inhibition Area at μg, E. coli",Escherichia coli,500 µg
same,MIC,A. niger [2],256 mg/L
"CN1CCN(CCCCCCN2CCN(CCC(=Cc3ccccc3)Cc3ccccc3)CC2)CC1 [LXV, 1-phenyl-2-benzyl-4-[4'-w-(4""-methyl-piperazino-1"")-n-hexyl-piperazino-1']-butene-1]",MIC,C. albicans [4],32 mg/L
same,"Inhibition Area at μg, Asp. niger",Aspergillus niger,5 µg
same,"Inhibition Area at μg, Staph. aureus",Staphylococcus aureus,500 µg
same,solubility,Solubility in water,100 mg/mL
same,"Inhibition Area at μg, Cand. albicans",Candida albicans,5 µg
same,MIC,A. niger [1],8 mg/L
same,MIC,C. albicans [3],32 mg/L
same,"Inhibition Area at μg, E. coli",Escherichia coli,500 µg
same,MIC,A. niger [2],8 mg/L
"CC(C(=Cc1ccccc1)Cc1ccccc1)N1CCN(CCN2CCN(C)CC2)CC1 (stereo not drawn) [XXXVI, 1-phenyl-2-benzyl-3-{4'-[β-(4""-methylpiperazino-1"")-ethyl]-piperazino-1'}-butene-1]",MIC,C. albicans [4],32 mg/L
same,"Inhibition Area at μg, Asp. niger",Aspergillus niger,50 µg
same,"Inhibition Area at μg, Staph. aureus",Staphylococcus aureus,500 µg
same,solubility,Solubility in water,< 10 mg/mL
same,"Inhibition Area at μg, Cand. albicans",Candida albicans,50 µg
same,MIC,A. niger [1],2 mg/L
same,MIC,C. albicans [3],4 mg/L
same,"Inhibition Area at μg, E. coli",Escherichia coli,> 500 µg
same,MIC,A. niger [2],8 mg/L
"CC(N1CCN(CCN(C)C)CC1)C(O)(Cc1ccccc1)Cc1ccccc1 (stereo not drawn) [Compound I, 1-phenyl-2-benzyl-3-[4'-(β-dimethylamino-ethyl)-piperazino-1']-butanol-2]",MIC,C. albicans [4],64 mg/L
same,"Inhibition Area at μg, Asp. niger",Aspergillus niger,50 µg
same,"Inhibition Area at μg, Staph. aureus",Staphylococcus aureus,500 µg
same,solubility,Solubility in water,100 mg/mL
same,"Inhibition Area at μg, Cand. albicans",Candida albicans,50 µg
same,MIC,A. niger [1],128 mg/L
same,MIC,C. albicans [3],64 mg/L
same,"Inhibition Area at μg, E. coli",Escherichia coli,500 µg
"CC(C(=Cc1ccccc1)Cc1ccccc1)N1CCN(CCN2CCN(C(C)c3ccccc3)CC2)CC1 (stereo not drawn) [XXXVIII, 1-phenyl-2-benzyl-3-{4'-[β-(4""-α-phenethyl-piperazino-1"")-ethyl]-piperazino-1'}-butene-1]",MIC,C. albicans [4],> 1020 mg/L
same,"Inhibition Area at μg, Asp. niger",Aspergillus niger,500 µg
same,"Inhibition Area at μg, Staph. aureus",Staphylococcus aureus,5 µg
same,MIC,Staph. aureus,128 mg/L
same,solubility,Solubility in water,100 mg/mL
same,"Inhibition Area at μg, Cand. albicans",Candida albicans,500 µg
same,"Inhibition Area at μg, E. coli",Escherichia coli,500 µg
same,MIC,A. niger [2],> 1020 mg/L
"CC(N1CCN(Cc2ccncc2)CC1)C(O)(Cc1ccccc1)Cc1ccccc1 (stereo not drawn) [XXIV, 1-phenyl-2-benzyl-3-[4'-(4""-pyridylmethyl)-piperazino-1']-butanol-2]",MIC,C. albicans [4],128 mg/L
same,"Inhibition Area at μg, Asp. niger",Aspergillus niger,> 500 µg
same,"Inhibition Area at μg, Staph. aureus",Staphylococcus aureus,> 500 µg
same,solubility,Solubility in water,100 mg/mL
same,"Inhibition Area at μg, Cand. albicans",Candida albicans,> 500 µg
same,"Inhibition Area at μg, E. coli",Escherichia coli,> 500 µg
same,MIC,A. niger [2],128 mg/L
"CC(C(=Cc1ccccc1)Cc1ccccc1)N1CCN(CCN2CCOCC2)CC1 (stereo not drawn) [XXXI, 1-phenyl-2-benzyl-3-[4'-(β-morpholino-ethyl)-piperazino-1']-butene-1]","Inhibition Area at μg, Asp. niger",Aspergillus niger,50 µg
same,"Inhibition Area at μg, Staph. aureus",Staphylococcus aureus,50 µg
same,MIC,Staph. aureus,128 mg/L
same,solubility,Solubility in water,100 mg/mL
same,"Inhibition Area at μg, Cand. albicans",Candida albicans,500 µg
same,MIC,A. niger [1],64 mg/L
same,"Inhibition Area at μg, E. coli",Escherichia coli,> 500 µg
"CC(N1CCN(CCN2CCN(C)CC2)CC1)C(O)(Cc1ccccc1)Cc1ccccc1 (stereo not drawn) [X, 1-phenyl-2-benzyl-3-{4'-[β-(4""-methyl-piperazino-1"")-ehtyl]-piperazino-1'}-butanol-2]",MIC,C. albicans [4],16 mg/L
same,"Inhibition Area at μg, Asp. niger",Aspergillus niger,50 µg
same,"Inhibition Area at μg, Staph. aureus",Staphylococcus aureus,500 µg
same,solubility,Solubility in water,100 mg/mL
same,"Inhibition Area at μg, Cand. albicans",Candida albicans,50 µg
same,MIC,A. niger [1],16 mg/L
same,MIC,C. albicans [3],16 mg/L
same,"Inhibition Area at μg, E. coli",Escherichia coli,500 µg
same,MIC,A. niger [2],16 mg/L
"OC(CCN1CCN(CCN2CCCCC2)CC1)(Cc1ccccc1)Cc1ccccc1 [LX, 1-phenyl-2-benzyl-4-[4'-(β-piperidinoethyl)-piperazino-1']-butanol-2]","Inhibition Area at μg, Asp. niger",Aspergillus niger,50 µg
same,"Inhibition Area at μg, Staph. aureus",Staphylococcus aureus,500 µg
same,solubility,Solubility in water,100 mg/mL
same,"Inhibition Area at μg, Cand. albicans",Candida albicans,500 µg
same,MIC,A. niger [1],64 mg/L
same,"Inhibition Area at μg, E. coli",Escherichia coli,500 µg
same,MIC,A. niger [2],8 mg/L
"CC(C(=Cc1ccccc1)Cc1ccccc1)N1CCN(CCN2CCN(Cc3ccccc3)CC2)CC1 (stereo not drawn) [XXXVII, 1-phenyl-2-benzyl-3-{4'-[β-(4""-benzylpiperazino-1"")-ethyl]-piperazino-1'}-butene-1]",MIC,C. albicans [4],512 mg/L
same,"Inhibition Area at μg, Asp. niger",Aspergillus niger,5 µg
same,"Inhibition Area at μg, Staph. aureus",Staphylococcus aureus,5 µg
same,MIC,Staph. aureus,16 mg/L
same,solubility,Solubility in water,50 mg/mL
same,"Inhibition Area at μg, Cand. albicans",Candida albicans,5 µg
same,MIC,A. niger [1],128 mg/L
same,MIC,C. albicans [3],8 mg/L
same,"Inhibition Area at μg, E. coli",Escherichia coli,500 µg
